Reference: PubChem BioAssay (NCI)
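Assay format: 96-well plates, 48-hour exposure. TGI: total growth inhibition.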

How the values were obtained:
Experiment in all cases: NCI-60 cell line screen, 48 h
[1] = system: EKVX NSCLC
[2] = system: SK-MEL-28 melanoma
[3] = system: SK-MEL-5 melanoma
[4] = system: HL-60(TB) leukemia
[5] = system: KM12 colon
[6] = system: NCI-H460 lung
[7] = system: A498 renal
[8] = system: SK-MEL-2 melanoma
[9] = system: NCI-H226 lung
[10] = system: MALME-3M melanoma
[11] = system: SNB-19 CNS
[12] = system: A549 NSCLC
[13] = system: HT29 colon
[14] = system: SF-268 CNS
[15] = system: HOP-92 NSCLC
[16] = system: NCI/ADR-RES ovarian
[17] = system: PC-3 prostate
[18] = system: T-47D breast
[19] = system: SR leukemia

Compound | TGI [1] | TGI [2] | TGI [3] | TGI [4] | TGI [5] | TGI [6] | TGI [7] | TGI [8] | TGI [9] | TGI [10] | TGI [11] | TGI [12] | TGI [13] | TGI [14] | TGI [15] | TGI [16] | TGI [17] | TGI [18] | TGI [19]
O=C(CSc1nnc(Cc2ccccc2)o1)Nc1cccc(Cl)c1 | > 100 µM | > 100 µM | > 100 µM | > 100 µM | > 100 µM | > 100 µM | > 100 µM | > 100 µM | > 100 µM | > 100 µM | > 100 µM | > 100 µM | > 100 µM | > 100 µM | – | – | – | – | –
N#CC1(C#N)NC(c2cccnc2)C(C#N)(C#N)NC1c1cccnc1 (stereo unspecified) | > 100 µM | > 100 µM | > 100 µM | > 100 µM | > 100 µM | – | > 100 µM | > 100 µM | > 100 µM | > 100 µM | – | > 100 µM | > 100 µM | > 100 µM | > 100 µM | > 100 µM | > 100 µM | > 100 µM | –
CC(=O)NC(CCCCN(Cc1ccccc1)C(=O)NCCCl)C(=O)NCc1ccccc1 (stereo unspecified) | > 100 µM | > 100 µM | – | > 100 µM | > 100 µM | > 100 µM | – | > 100 µM | > 100 µM | > 100 µM | > 100 µM | > 100 µM | > 100 µM | > 100 µM | > 100 µM | – | – | – | > 100 µM
CC1(C)O[C@H]([C@H](O)c2nnc3ccc(Cl)nn23)[C@@H]([C@H]2COC(C)(C)O2)O1 | > 100 µM | > 100 µM | > 100 µM | > 100 µM | > 100 µM | > 100 µM | > 100 µM | > 100 µM | – | > 100 µM | > 100 µM | > 100 µM | > 100 µM | > 100 µM | – | > 100 µM | > 100 µM | > 100 µM | –
c1ccc(CSc2ccccc2CN2CCN(Cc3ccccc3SCc3ccccc3)CCN(Cc3ccccc3SCc3ccccc3)CC2)cc1 | 3.39 µM | 4.61 µM | 2.95 µM | 4.06 µM | 5.26 µM | 2.87 µM | 5.81 µM | 2.83 µM | 3.46 µM | 3.56 µM | 5.19 µM | 10.1 µM | 2.42 µM | 10.3 µM | 2 µM | 6.85 µM | 2.52 µM | 4.81 µM | –
CCOC(=O)C(NC(=O)C(CCCCNP(=O)(OCC)OCC)NC(=O)C(C)NC(C)=O)C(C)C (stereo unspecified) | > 100 µM | > 100 µM | > 100 µM | > 100 µM | > 100 µM | > 100 µM | > 100 µM | > 100 µM | > 100 µM | > 100 µM | > 100 µM | > 100 µM | > 100 µM | > 100 µM | > 100 µM | > 100 µM | > 100 µM | – | > 100 µM
CCOC(=O)[C@@H]1OC(c2ccccc2)O[C@H]1C(=O)OCC | > 100 µM | > 100 µM | > 100 µM | – | > 100 µM | – | > 100 µM | > 100 µM | > 100 µM | > 100 µM | > 100 µM | > 100 µM | > 100 µM | > 100 µM | > 100 µM | > 100 µM | > 100 µM | – | > 100 µM
O=C(/C=C/c1ccc(O)c(O)c1)OC1C[C@@](O)(C(=O)O)C[C@@H](O)[C@H]1OC(=O)/C=C/c1ccc(O)c(O)c1 (stereo partly specified) | > 100 µM | > 100 µM | > 100 µM | > 100 µM | > 100 µM | > 100 µM | > 100 µM | > 100 µM | > 100 µM | > 100 µM | – | > 100 µM | > 100 µM | > 100 µM | > 100 µM | – | – | – | > 100 µM
CC(C)(C)OC(=O)[C@@H]1CCC(=S)N1Cc1ccccc1 | > 100 µM | > 100 µM | > 100 µM | – | > 100 µM | > 100 µM | > 100 µM | > 100 µM | > 100 µM | > 100 µM | > 100 µM | > 100 µM | – | – | > 100 µM | > 100 µM | > 100 µM | – | > 100 µM
Cc1ccc(-c2cc(-c3ccc(Cl)cc3)nc(/N=C3\C(=O)N(CN4CCOCC4)c4ccccc43)n2)cc1 | > 100 µM | > 100 µM | 36.1 µM | 26.3 µM | 58.5 µM | 50.8 µM | 38.9 µM | 37.2 µM | 89.9 µM | 69.4 µM | 42.2 µM | 39.7 µM | 65.1 µM | > 100 µM | 62.7 µM | > 100 µM | > 100 µM | > 100 µM | –
Cc1cc2nc3c(C#N)c(-c4ccccc4)/c(=C\Nc4ccc(Cl)cc4)c(=O)n3c2cc1C | > 100 µM | > 100 µM | > 100 µM | – | > 100 µM | > 100 µM | > 100 µM | > 100 µM | > 100 µM | > 100 µM | > 100 µM | > 100 µM | – | > 100 µM | – | > 100 µM | > 100 µM | > 100 µM | –
CCSC1=N/C(=C\c2ccco2)C(NN)=N1 | > 50 µM | > 50 µM | > 50 µM | > 50 µM | > 50 µM | > 50 µM | > 50 µM | > 50 µM | > 50 µM | > 50 µM | > 50 µM | > 50 µM | > 50 µM | > 50 µM | > 50 µM | > 50 µM | > 50 µM | > 50 µM | –
N#CC(/C(=N\NC(=O)c1ccncc1)C(=O)Nc1ccc([N+](=O)[O-])cc1[N+](=O)[O-])c1nc(-c2ccc(Br)cc2)cs1 (stereo unspecified) | > 100 µM | > 100 µM | > 100 µM | > 100 µM | > 100 µM | > 100 µM | > 100 µM | > 100 µM | – | > 100 µM | > 100 µM | > 100 µM | – | > 100 µM | – | – | – | – | –
COc1c(C)c2c(c3c1c(=O)c1ccccc1n3C)C=CC(C)(C)O2 | > 100 µM | 55.1 µM | 31.1 µM | 30.2 µM | 60.9 µM | 62 µM | 73.4 µM | 48.3 µM | > 100 µM | 56.7 µM | > 100 µM | 26.7 µM | 81.5 µM | 91.4 µM | 88.8 µM | – | – | – | 58.6 µM
